According to US7267815B2, “Methods and reagents for the enhancement of virus transduction in the bladder epithelium” (priority 2002, dated 2007):

Key:
[1] = system: bladder epithelium; assay: Transduction efficacy of exemplary pretreatment agents (summary Table 7); format: in vivo, mouse; conditions: pretreatment agent
[2] = system: bladder epithelium; assay: Effect of chemical agent pretreatment on adenovirus-mediated gene transfer and expression (Ad-βgal, X-gal staining); format: in vivo, mouse (BALB/c)
Experimental: 152 female BALB/c mice were used this study.
The route of administration of the chemical agent and virus was intravesical.
3. Based on the reagent being tested, bladder pretreatment was performed as follows:
Poloxomer 407 procedure: Washed 2 times with 100 μl each. Retained the 3rd wash for 5 min and gave one additional wash. Performed 3 times PBS wash prior to virus instillation.
Poloxomer 188 procedure: Washed 2 times with 100 μl each. Retained the 3rd wash for 5 minutes and gave one additional wash. Performed 3 times PBS wash prior to virus instillation.
Lipofectamine 2000 procedure: Added 5 μl of stock Lipofectamine (1 mg/ml) to 195 μl of PBS-10% glycerol. Mixed with an equal volume of Ad-βgal virus and incubated for 15 minutes. Administered 100 μl of the mixture intravesically and retained in the bladder for 30 minutes.
Benzyl Alcohol procedure: Washed 2 times with 100 μl each. Retained the 3rd wash for 15 minutes and then gave one additional wash. Performed 3 times PBS wash prior to virus instillation.
Performed 3 times PBS wash prior to virus instillation.
Polidocanol procedure: Washed 2 times with 100 μl each. Retained the 3rd wash for 5 min and then gave one additional wash. Performed 3 times PBS wash prior to virus instillation.
DC-Cho procedure: Washed 2 times with 100 μl each. Retained the 3rd wash for 5 min and then gave one additional wash. Performed 3 times PBS wash prior to virus instillation.
0.4% HPMC 2910 procedure: No pretreatment. An equal volume of the virus was mixed with 0.8% solution of HPMC2910 and the mixture was instilled into the bladder for 30 minutes.
100 mg/ml Poly-Lysine procedure: No pretreatment. An equal volume of the virus was mixed with 100 mg/ml solution of Poly-Lysine and the mixture was instilled into the bladder for 30 minutes.
0.4% polyvinyl alcohol (PVA) procedure: No pretreatment. An equal volume of the virus was mixed with 0.8% solution of PVA and the mixture was instilled into the bladder for 30 minutes.
n-dodecyl-β-D glucopyranoside procedure: Washed 2 times with 100 μl each. Retained the 3rd wash for 5 min and then gave one additional wash. Performed 3 times PBS wash prior to virus instillation.
0.4% PVP procedure: No pretreatment. An equal volume of the virus was mixed with 0.8% solution of PVP and the mixture was instilled into the bladder for 30 min.
0.1% cholesterol-cyclodextrin reagent procedure: No pretreatment. An equal volume of the virus was mixed with 0.2% solution of Cholesterol-Cyclodextrin and the mixture was instilled into the bladder for 30 minutes.
n-dodecyl-β-D-maltoside procedure: Washed 2 times with 100 μl each. Retained the 3rd wash for 5 min and then gave one additional wash. Performed 3 times PBS wash prior to virus instillation.
Sodium salt of dodecyl benzenesulfonic acid procedure: Washed 2 times with 100 μl each. Retained the 3rd wash for 5 min and then gave one additional wash. Performed 3 times PBS wash prior to virus instillation.
0.1% sodium dodecyl sulphate procedure: Wash 2 times with 100 μl each. Retained the 3rd wash for 5 min and then gave one additional wash. Performed 3 times PBS wash prior to virus instillation.
0.1% Tween 20 procedure: Washed 2 times with 100 μl each. Retained the 3rd wash for 5 min and then gave one additional wash. Performed 3 times PBS wash prior to virus instillation.
0.1% Triton® X-100 procedure: Washed 2 times with 100 μl each. Retained the 3rd wash for 5 min and then gave one additional wash. Perform 3 times PBS wash prior to virus instillation.
0.1% Forlan C-24 procedure: Washed 2 times with 100 μl each. Retained the 3rd wash for 5 min and then gave one additional wash. Performed 3 times PBS wash prior to virus instillation.
0.1% decyl-b-D-maltoside procedure: Washed 2 times with 100 μl each. Retained the 3rd wash for 5 min and then gave one additional wash. Performed 3 times PBS wash prior to virus instillation.
0.1% 6-cyclohexylhexyl-b-D-maltoside procedure: Washed 2 times with 100 μl each. […]

[3] = system: mice bladder urothelium; assay: DDM from two suppliers as pretreatment agent prior to adenovirus infection; format: in vivo, Balb/c Mouse; conditions: two different lots of DDM, pretreatment QQ5 minQ, 1×10^10 vp/dose for 15 min
Source text: Rat bladders infected with 4×10^10 vp adenovirus achieved >90% Ad-βgal gene expression levels whereas rat bladders infected with 4×10^9 vp adenovirus had Ad-βgal gene expression levels range from 30% to 50%. […] Efficacy of Dodecyl-β-D-Maltoside as a Pretreatment Agent Prior to Adenovirus Infection of Mice Bladder Urothelium • Species: Female Balb/c Mouse (Taconic Laboratory)—2/group • Study Design: To test DDM from two different suppliers as pretreatment agents to enhance the adenovirus infection of mice bladder urothelium in a large group of animals. • Dose/Route:
In each case, >90% Ad-βgal expression was achieved. Therefore, DDM from either manufacturer is a good candidate for a chemical enhancer for adenovirus infection in mice bladder. Efficacy of Dodecyl-β-D-Maltoside as Chemical Enhancer Prior to Adenovirus Infection of SW780+ Luc Orthotopic Bladder Tumor Model in Mice • Species: Female NCR nu/nu Mouse (Taconic Laboratory)-2/group • Study Design: To show DDM pretreatments enhance Ad.Lac Z infectivity in mice bladder urothelium. To further confirm the enhancer effect on orthotopic tumors, two mice bearing orthotopic SW780 bladder tumors were pretreated with or without DDM (QQ5 minQ) followed by 15 min Ad.Lac Z instillation. The Ad.Lac Z gene expression levels were checked in these tumor cells 4 days post Ad.Lac Z infection. • Dose/Route: […]

SMILES: CCCCCCCCCCCCO[C@@H]1O[C@H](CO)[C@@H](O[C@H]2O[C@H](CO)[C@@H](O)[C@H](O)[C@H]2O)[C@H](O)[C@H]1O [n-dodecyl β-D-maltoside, n-dodecyl-β-D-maltoside]
- Transduction Efficacy [1]: ++++ (“++++” means >75% transduction efficacy)
- response class (level of transduction) [2]: strongest response
- transduction of the urothelium ([2]; 0.02% pre-treatment for 5 minutes): 50-80%
- transduction of the urothelium ([2]; 0.05% pre-treatment for 5 minutes): > 90%
- transduction of the urothelium ([2]; 0.2% pre-treatment for 5 minutes): > 90%
- effect on transduction (in words) ([2]; bladder pretreatment followed by Ad-LacZ): increased transduction significantly
- Ad-βgal expression [3]: > 90%
